Assay results published in patent US20260138988A1, “Spiropyrrolidine Derived Antiviral Agents” (Enanta Pharmaceuticals, Inc., priority 2021, published 2026).

How the values were obtained:
[1] = tested on: 229E human corona virus (hCoV); test: 229E live virus assay (MRC-5 cells, CPE, ATPlite readout); type: cell-based, hCoV-229E; settings: Human coronavirus 229E, MRC5, 144 h; hCoV-229E in MRC-5 cells, MOI 0.05, 6 days at 34° C., ATPlite, run in duplicate; read-out: 229E EC50
[2] = target: SARS-CoV-2 3CL-protease (Severe acute respiratory syndrome coronavirus 2, UniProt P0DTD1); test: SARS-CoV-2 3C-Like (3CL) Protease Fluorescence Assay (FRET); type: biochemical; settings: SARS-CoV-2 3CL-protease 10 nM, test compounds 0-10 μM, duplicate, read-out: IC50

Structure (SMILES): CC(C)C[C@H]1C(=O)N2C[C@]3(C[C@H]2C#N)C(=O)Nc2ccc(cc23)CCCCC[C@H](NC(=O)OC(C)(C)C)C(=O)N1C [Example 373]
- EC50 [1]: 0.1 to 1 µM
- IC50 [2]: < 0.1 µM
